Data taken from PubChem BioAssay AID248 (DTP/NCI, 2004).
Toxic doses and inconclusive results are not listed. Numbered stars: 1 amine (or outer) side, 2 acyl side, 3 side chain; on linkers, the order of the positions; unused ones are H or OH. Bridge positions count the residues as written; N and C are the ends. Square brackets hold non-standard residues; d marks the D form. Peptide text beside a SMILES is read from it. I, II: the chains in the order shown. Actinocin(1to9) = Cc1c2oc3c(C)ccc(C(=O)[*:2])c3nc-2c(C(=O)[*:1])c(N)c1=O; NMeV = CN[CH](C(=O)O)C(C)C; Sar = CNCC(=O)O

System: L1210 leukemia ip in BDF1 mice, survival T/C
Assay: NCI In Vivo Anticancer Drug Screen. Data for tumor model L1210 Leukemia (intraperitoneal) in B6D2F1 (BDF1) mice
Conditions: higher = longer survival
In short: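 Transplanted-tumor mice were given test agent; controls received vehicle only. Survival readings from the two groups were divided (treated over control).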

[1] = endpoint: mean survival time, dose: 50.0 mg/kg/injection, schedule: Q01DX009 (ip), vehicle: saline with Tween-80
[2] = endpoint: mean survival time, dose: 100.0 mg/kg/injection, schedule: Q01DX009 (ip), vehicle: saline with Tween-80
[3] = endpoint: mean survival time, dose: 100.0 mg/kg/injection, schedule: Q04DX003 (ip), vehicle: saline with Tween-80
[4] = endpoint: mean survival time, dose: 200.0 mg/kg/injection, schedule: Q01DX009 (ip), vehicle: saline with Tween-80
[5] = endpoint: mean survival time, dose: 200.0 mg/kg/injection, schedule: Q04DX003 (ip), vehicle: saline with Tween-80
[6] = endpoint: mean survival time, dose: 100.0 mg/kg/injection, schedule: Q04DX003 (ip), vehicle: saline
[7] = endpoint: mean survival time, dose: 200.0 mg/kg/injection, schedule: Q04DX003 (ip), vehicle: saline
[8] = endpoint: mean survival time, dose: 400.0 mg/kg/injection, schedule: Q04DX003 (ip), vehicle: saline with Tween-80
[9] = endpoint: mean survival time, dose: 100.0 mg/kg/injection, schedule: Q01DX001 (ip), vehicle: carboxymethylcellulose (CMC)
[10] = endpoint: mean survival time, dose: 200.0 mg/kg/injection, schedule: Q01DX001 (ip), vehicle: carboxymethylcellulose (CMC)
[11] = endpoint: mean survival time, dose: 400.0 mg/kg/injection, schedule: Q01DX001 (ip), vehicle: carboxymethylcellulose (CMC)
[12] = endpoint: mean survival time, dose: 100.0 mg/kg/injection, schedule: Q01DX009 (ip), vehicle: Klucel (hydroxypropylcellulose) (HPC)
[13] = endpoint: mean survival time, dose: 100.0 mg/kg/injection, schedule: Q04DX003 (ip), vehicle: Klucel (hydroxypropylcellulose) (HPC)
[14] = endpoint: mean survival time, dose: 200.0 mg/kg/injection, schedule: Q01DX009 (ip), vehicle: Klucel (hydroxypropylcellulose) (HPC)
[15] = endpoint: mean survival time, dose: 200.0 mg/kg/injection, schedule: Q04DX003 (ip), vehicle: Klucel (hydroxypropylcellulose) (HPC)
[16] = endpoint: mean survival time, dose: 400.0 mg/kg/injection, schedule: Q04DX003 (ip), vehicle: Klucel (hydroxypropylcellulose) (HPC)

CCC(C)C1NC(=O)C(NC(=O)c2c3nc4c(C(=O)NC5C(=O)NC(C(C)C)C(=O)N6CCCC6C(=O)N(C)CC(=O)N(C)C(C(C)C)C(=O)OC5C)ccc(C)c4oc-3c(C)c(=O)c2N)C(C)OC(=O)C(C(C)C)N(C)C(=O)CN(C)C(=O)C2CCCN2C1=O (stereo not given) (I: TIP[Sar][NMeV] / II: TVP[Sar][NMeV]; ester I:1-I:C, II:1-II:C; linker I:N-II:N via Actinocin(1to9); configuration not given here)
T/C (endpoint: mean survival time, dose: 0.2 mg/kg/injection, schedule: Q01DX009 (ip), vehicle: saline): 92 % of control
T/C (endpoint: mean survival time, dose: 3.1 micrograms/kg/injection, schedule: Q01DX001 (ip), vehicle: saline): 97 % of control
T/C (endpoint: mean survival time, dose: 5.5 micrograms/kg/injection, schedule: Q01DX009 (ip), vehicle: acetone): 112 % of control
T/C (endpoint: mean survival time, dose: 6.3 micrograms/kg/injection, schedule: Q01DX001 (ip), vehicle: saline): 98 % of control
T/C (endpoint: mean survival time, dose: 8.2 micrograms/kg/injection, schedule: Q01DX009 (ip), vehicle: acetone): 123 % of control
T/C (endpoint: mean survival time, dose: 12.5 micrograms/kg/injection, schedule: Q01DX001 (ip), vehicle: saline): 100 % of control
T/C (endpoint: mean survival time, dose: 25.0 micrograms/kg/injection, schedule: Q01DX001 (ip), vehicle: saline): 107 % of control
T/C (endpoint: mean survival time, dose: 25.0 micrograms/kg/injection, schedule: Q01DX009 (ip), vehicle: saline): 159 % of control
T/C (endpoint: mean survival time, dose: 50.0 micrograms/kg/injection, schedule: Q01DX001 (ip), vehicle: saline): 114 % of control
T/C (endpoint: mean survival time, dose: 100.0 micrograms/kg/injection, schedule: Q01DX001 (ip), vehicle: saline): 111 % of control
T/C (endpoint: mean survival time, dose: 200.0 micrograms/kg/injection, schedule: Q01DX001 (ip), vehicle: saline): 117 % of control
T/C (endpoint: mean survival time, dose: 400.0 micrograms/kg/injection, schedule: Q01DX001 (ip), vehicle: saline): 116 % of control
T/C (endpoint: median survival time, dose: 12.5 micrograms/kg/injection, schedule: Q01DX009 (ip), vehicle: water): 121 % of control
T/C (endpoint: median survival time, dose: 25.0 micrograms/kg/injection, schedule: Q01DX009 (ip), vehicle: water): 115 % of control
T/C (endpoint: median survival time, dose: 100.0 micrograms/kg/injection, schedule: Q01DX009 (ip), vehicle: water): 157 % of control
T/C (endpoint: median survival time, dose: 200.0 micrograms/kg/injection, schedule: Q01DX001 (ip), vehicle: water): 115 % of control
T/C (endpoint: median survival time, dose: 400.0 micrograms/kg/injection, schedule: Q01DX001 (ip), vehicle: water): 123 % of control
T/C (endpoint: median survival time, dose: 600.0 micrograms/kg/injection, schedule: Q04DX003 (ip), vehicle: water): 150 % of control

CCCC(C)(O)C#CC(C)(O)CCC (stereo not given)
T/C [1]: 97 % of control
T/C [2]: 95 % of control
T/C [3]: 100 % of control
T/C [4]: 97 % of control
T/C [5]: 95 % of control

Cc1ccc(C)c(S(=O)(=O)OCC#CCOS(=O)(=O)c2cc(C)ccc2C)c1
T/C [1]: 92 % of control
T/C [2]: 92 % of control
T/C [6]: 97 % of control
T/C [4]: 87 % of control
T/C [7]: 97 % of control
T/C (endpoint: mean survival time, dose: 400.0 mg/kg/injection, schedule: Q04DX003 (ip), vehicle: saline): 91 % of control

CC(CCCCCOC(=O)Nc1ccccc1)OC(=O)Nc1ccccc1 (stereo not given)
T/C (endpoint: mean survival time, dose: 100.0 mg/kg/injection, schedule: Q01DX001 (ip), vehicle: other): 98 % of control
T/C (endpoint: mean survival time, dose: 200.0 mg/kg/injection, schedule: Q01DX001 (ip), vehicle: other): 87 % of control
T/C (endpoint: mean survival time, dose: 400.0 mg/kg/injection, schedule: Q01DX001 (ip), vehicle: other): 96 % of control

NC(=O)c1ccc[n+](CC(=O)Nc2ccc(Cl)cc2)c1
T/C [3]: 101 % of control
T/C [5]: 101 % of control
T/C [8]: 95 % of control

CC/C(=N/O)c1ccc(O)cc1O
T/C [2]: 106 % of control
T/C [3]: 101 % of control
T/C [4]: 106 % of control
T/C [5]: 101 % of control
T/C [8]: 101 % of control

COC(=O)C1=CC(C(=O)OC)C(C(=O)OC)N2C=CSC2(C)C1 (stereo not given)
T/C [3]: 96 % of control
T/C [5]: 96 % of control
T/C [8]: 93 % of control

O=C1NC(=O)C(CCI)(CCI)C(=O)N1
T/C [9]: 103 % of control
T/C [10]: 98 % of control
T/C [11]: 109 % of control

ClCC1COCO1 (stereo not given)
T/C (endpoint: mean survival time, dose: 12.5 mg/kg/injection, schedule: Q01DX009 (ip), vehicle: saline with Tween-80): 107 % of control
T/C (endpoint: mean survival time, dose: 25.0 mg/kg/injection, schedule: Q01DX009 (ip), vehicle: saline with Tween-80): 102 % of control
T/C [1]: 106 % of control

CCc1ccccc1NC(=O)Nc1ccc(OC)cc1
T/C (endpoint: mean survival time, dose: 25.0 mg/kg/injection, schedule: Q01DX009 (ip), vehicle: Klucel (hydroxypropylcellulose) (HPC)): 90 % of control
T/C (endpoint: mean survival time, dose: 50.0 mg/kg/injection, schedule: Q01DX009 (ip), vehicle: Klucel (hydroxypropylcellulose) (HPC)): 95 % of control
T/C [12]: 93 % of control
T/C [13]: 94 % of control
T/C [14]: 86 % of control
T/C [15]: 91 % of control
T/C [16]: 96 % of control

COc1nc(Cl)cc2c1ncn2C1OC(CO)C(O)C1O (stereo not given)
T/C (endpoint: mean survival time, dose: 100.0 mg/kg/injection, schedule: Q01DX005 (ip), vehicle: saline): 111 % of control
T/C (endpoint: mean survival time, dose: 200.0 mg/kg/injection, schedule: Q01DX005 (ip), vehicle: saline): 108 % of control

Cc1ccc(N=Nc2ccc(C)cc2NC(=O)Nc2ccccc2C(F)(F)F)cc1
T/C [12]: 92 % of control
T/C [14]: 90 % of control
T/C (endpoint: mean survival time, dose: 400.0 mg/kg/injection, schedule: Q01DX009 (ip), vehicle: Klucel (hydroxypropylcellulose) (HPC)): 90 % of control

C=C(Br)C(C)N (stereo not given)
T/C (endpoint: mean survival time, dose: 100.0 mg/kg/injection, schedule: Q01DX009 (ip), vehicle: saline): 104 % of control

c1ccc(C2OCCOC2c2ccccc2)cc1 (stereo not given)
T/C [9]: 101 % of control
T/C [10]: 103 % of control
T/C [11]: 101 % of control

CN(C)C(=O)NN
T/C [2]: 104 % of control

CC[N+](C)(C)CCOC(=O)C1C2CC3OC(=O)C1C3C2 (stereo not given)
T/C [6]: 97 % of control
T/C [7]: 101 % of control

[Cl][Hg][Cl].c1cnccn1
T/C (endpoint: mean survival time, dose: 1.0 mg/kg/injection, schedule: Q01DX009 (ip), vehicle: saline with Tween-80): 105 % of control
T/C (endpoint: mean survival time, dose: 2.0 mg/kg/injection, schedule: Q01DX009 (ip), vehicle: saline with Tween-80): 93 % of control
T/C (endpoint: mean survival time, dose: 4.0 mg/kg/injection, schedule: Q01DX009 (ip), vehicle: saline with Tween-80): 105 % of control
T/C (endpoint: mean survival time, dose: 8.0 mg/kg/injection, schedule: Q04DX003 (ip), vehicle: saline with Tween-80): 88 % of control

CC1(C)N=C(N)N=C(N)N1c1cccc(Cl)c1
T/C (endpoint: mean survival time, dose: 1.15 mg/kg/injection, schedule: Q01DX Z (ip), vehicle: carboxymethylcellulose (CMC)): 98 % of control
T/C (endpoint: mean survival time, dose: 2.3 mg/kg/injection, schedule: Q01DX Z (ip), vehicle: carboxymethylcellulose (CMC)): 97 % of control
T/C (endpoint: mean survival time, dose: 2.5 mg/kg/injection, schedule: Q01DX015 (ip), vehicle: saline): 111 % of control
T/C (endpoint: mean survival time, dose: 4.6 mg/kg/injection, schedule: Q01DX Z (ip), vehicle: carboxymethylcellulose (CMC)): 117 % of control
T/C (endpoint: mean survival time, dose: 5.0 mg/kg/injection, schedule: Q01DX015 (ip), vehicle: saline): 114 % of control
T/C (endpoint: mean survival time, dose: 9.2 mg/kg/injection, schedule: Q01DX Z (ip), vehicle: carboxymethylcellulose (CMC)): 108 % of control
T/C (endpoint: mean survival time, dose: 10.0 mg/kg/injection, schedule: Q01DX015 (ip), vehicle: saline): 119 % of control
T/C (endpoint: mean survival time, dose: 40.0 mg/kg/injection, schedule: Q01DX015 (ip), vehicle: saline): 114 % of control
T/C (endpoint: mean survival time, dose: 75.0 mg/kg/injection, schedule: Q01DX001 (ip), vehicle: acetone): 111 % of control

COC(=O)C1ON(C(=O)c2ccccc2)C(C)C(O)C1I (stereo not given)
T/C [13]: 96 % of control
T/C [15]: 97 % of control
T/C [16]: 92 % of control

Cc1ccc2ccccc2c1NS(=O)(=O)c1ccccc1
T/C (endpoint: mean survival time, dose: 100.0 mg/kg/injection, schedule: Q01DX001 (ip), vehicle: saline sonified): 95 % of control
T/C [2]: 90 % of control
T/C (endpoint: mean survival time, dose: 200.0 mg/kg/injection, schedule: Q01DX001 (ip), vehicle: saline sonified): 95 % of control
T/C [4]: 90 % of control
T/C (endpoint: mean survival time, dose: 400.0 mg/kg/injection, schedule: Q01DX001 (ip), vehicle: saline sonified): 97 % of control
T/C (endpoint: mean survival time, dose: 400.0 mg/kg/injection, schedule: Q01DX009 (ip), vehicle: saline with Tween-80): 88 % of control
